Experimental data: article PMC4927141, “Structural Insights into a Novel Class of Aspartate Aminotransferase from Corynebacterium glutamicum” (PLoS ONE, 2016)

What was measured:
CgAspAT [1] = molecular target: T1, CgAspAT (Corynebacterium glutamicum, UniProt Q8NTR2); experiment: malate dehydrogenase-coupled NADH oxidation, […] nm; format: biochemical; conditions: 300 mM L-aspartate, 50 mM α-ketoglutarate, 100 mM Tris-HCl pH 8.0, 303 K, no added PLP
T1 construct: gene Cgl0240; pET30a, Ni-NTA purified, E. coli BL21(DE3)-T1R host; about 90 kDa homodimer; core domain Leu56-Gly304, C-terminal residue named Asn426

CgAspAT [2] = molecular target: T1, CgAspAT; experiment: X-ray crystal structure, […] Å; format: binding; conditions: copurified, no PLP added; 28% PEG 3350, 200 mM ammonium citrate dibasic; near Lys259 (known aldimine lysine, covalent bond not stated for this structure)
[3] = molecular target: the molecule itself; experiment: SEC; Sephacryl S-300 prep-grade column (320 ml), 40 mM Tris-HCl pH 8.0, 277 K; last step of the purification; dimer of the protein with itself

Molecule | malate dehydrogenase-coupled NADH oxidation, 340 nm (CgAspAT [1]) | also measured
O=C(O)CCC(=O)C(=O)O [α-ketoglutarate] | CgAspAT enzymes catalyze L-asparate and α-ketoglutarate to L-glutamate and oxaloacetate | 
Cc1ncc(COP(=O)(O)O)c(C=O)c1O [PLP] |  | X-ray crystal structure, 2.0 Å (CgAspAT [2]): we observed the electron density for the PLP cofactor in our structure without adding it
N[C@@H](CC(=O)O)C(=O)O [L-aspartate] | CgAspAT enzymes catalyze L-asparate and α-ketoglutarate to L-glutamate and oxaloacetate | 
Aspartate aminotransferase from Corynebacterium glutamicum ATCC13032 (enzyme, Corynebacterium glutamicum ATCC 13032, Aspartate aminotransferase (CgAspAT) of Corynebacterium glutamicum ATCC 13032, gene amplified from chromosomal DNA and cloned into pET30a; residues up to Asn426 are named in the structure; also called CgAspAT; AspAT; source: E. coli BL21(DE3)-T1R, purified (Ni-NTA, size-exclusion chromatography on Sephacryl S-300)) MSSVSLQDFDAERIGLFHEDIKRKFDELKSKNLKLDLTRGKPSSEQLDFADELLALPGKGDFKAADGTDVRNYGGLDGIVDIRQIWADLLGVPVEQVLAGDASSLNIMFDVISWSYIFGNNDSVQPWSKEETVKWICPVPGYDRHFSITERFGFEMISVPMNEDGPDMDAVEELVKNPQVKGMWVVPVFSNPTGFTVTEDVAKRLSAMETAAPDFRVVWDNAYAVHTLTDEFPEVIDIVGLGEAAGNPNRFWAFTSTSKITLAGAGVSFFLTSAENRKWYTGHAGIRGIGPNKVNQLAHARYFGDAEGVRAVMRKHAASLAPKFNKVLEILDSRLAEYGVAQWTVPAGGYFISLDVVPGTASRVAELAKEAGIALTGAGSSYPLRQDPENKNLRLAPSLPPVEELEVAMDGVATCVLLAAAEHYAN |  | stoichiometry N [3]: 2
